Where two headings read alike, the source gives them in different places.
Experiments:
[1] = test system: macrophage cell line J774.1; assay: Macrophage assay (Alamar Blue cytotoxicity); assay type: cell-based
Method: The macrophage cell line J774.1 was maintained in complete Click RPMI medium. For the experimental procedures cells were detached from the flasks with a rubber police, washed twice with PBS and suspended at 2 x 10^6 cells mL^-1 in complete Click RPMI medium. […] Following the addition of 20 µl of Alamar Blue, the plates were further incubated at similar conditions. The plates were then read 24 and 48 h later. Control experiments to examine the effect of cell density, incubation time and DMSO concentration were performed. Absorbance in the absence of compounds was set as 100 % of growth control.

[2] = test system: rodent malaria model; conditions: cited from earlier work
[3] = test system: P. falciparum; conditions: cited from earlier work
[4] = test system: T. brucei brucei laboratory strain TC 221; assay: Trypanosome assay (in vitro cytotoxicity, Alamar Blue); assay type: cell-based, Trypanosoma brucei brucei; conditions: for activity against trypanosomes (in words): statement of the discussion
Method: Parasite culture: Trypomastigote forms of T. brucei brucei laboratory strain TC 221 were cultured in Baltz medium according to standard conditions.^36 In vitro cytotoxicity assays: The test compounds were dissolved in DMSO or 0.1 M NaOH. A defined number of parasites (10^4 trypanosomes per mL) were exposed in test chambers of 96-well plates to various concentrations of the test substances in a final volume of 200 µl. Positive (trypanosomes in culture medium) and negative controls (test substance without trypanosomes) were run with each plate. The plates were then incubated at 37°C in an atmosphere of 5 % CO2 for a total time period of 72 h. […] The effect of test substances was quantified in ED50 values by linear interpolation^18 of three different measurements. The activity of the test substances was measured by light absorption in an MR 700 Microplate Reader at a wavelength of 550 nm with a reference wave length of 630 nm, using the Alamar Blue®.

[5] = Trypanosoma brucei, reference substances, for comparison (title of Table 1), read-out: ED50 (T. brucei brucei)
[6] = Mus musculus, J774.1 macrophages, after 48h, read-out: ED50 [µM] Macrophage after 48h
[7] = Trypanosoma brucei, strain TC 221, 10^4 trypanosomes per mL, incubated 72 h, reading at 48 h, Alamar Blue, read-out: ED50 [µM] T. brucei brucei
[8] = J774.1 macrophages, after 48h, read-out: ED50 [µM] Macrophage after 48h
[9] = strain TC 221, 10^4 trypanosomes per mL, incubated 72 h, reading at 48 h, Alamar Blue, read-out: ED50 [µM] T. brucei brucei
[10] = reference substances, for comparison (title of Table 1), read-out: ED50 (T. brucei brucei)

Structure (SMILES)	EC50 [1, 6] [µM]	EC50 [4, 7] [µM]	further results
C[C@@H]1[C@H](O)[C@@H](C)/C=C/C=C/C=C/C=C/C=C/C=C/C=C/[C@H](O[C@@H]2O[C@H](C)[C@@H](O)[C@H](N)[C@@H]2O)C[C@@H]2O[C@](O)(C[C@@H](O)C[C@@H](O)[C@H](O)CC[C@@H](O)C[C@@H](O)CC(=O)O[C@H]1C)C[C@H](O)[C@H]2C(=O)O [Amphotericin B, reference compound]			IC50 ([1]; reference substance, for comparison, read-out: IC50 (J774.1 Macrophages)): 68.6 ± 16.5 µM
Cc1cc(C2CCCCC2)n(O)c(=O)c1 [Ciclopiroxolamine, reference compound]			efficacy in vivo ([2]; rodent malaria model): ineffective in vivo; EC50 ([1]; Mus musculus, J774.1, reference substance, for comparison, 48 h, read-out: ED50 (macrophages, 48 h)): 4.62 ± 0.97 µM; IC50 ([3]; chloroquine sensitive (CQS) NF54 P. falciparum strain, read-out: IC50 in vitro proliferation): 8.2 µM; EC50 [4, 5]: 0.62 ± 0.22 µM
COC(=O)C1C(=O)C(C(=O)OC)[C@H](c2ccccn2)N[C@@H]1c1ccccn1 (stereo partly drawn) [Compound 1, Dimethyl (2R,6S)-4-oxo-2,6-di(pyridin-2-yl)piperidine-3,5-dicarboxylate]	> 100	28.1 ± 1.52	
C=CCN1[C@H](c2ccccn2)C(C(=O)OC)C(=O)C(C(=O)OC)[C@@H]1c1ccccn1 (stereo partly drawn) [Compound 2, Dimethyl (2R,6S)-1-allyl-4-oxo-2,6-di(pyridin-2-yl)piperidine-3,5-dicarboxylate]	> 100	26.5 ± 7.64	
COC(=O)C1C(=O)C(C(=O)OC)[C@H](c2ccccn2)N(CCO)[C@@H]1c1ccccn1 (stereo partly drawn) [Compound 3, Dimethyl (2R,6S)-1-(2-hydroxyethyl)-4-oxo-2,6-di(pyridin-2-yl)piperidine-3,5-dicarboxylate]	31.15 ± 0.14	22.8 ± 5.57	
COC(=O)C1C(=O)C(C(=O)OC)[C@H](c2ccccn2)N(CC(C)O)[C@@H]1c1ccccn1 (stereo partly drawn) [Compound 4, Dimethyl (2R,6S)-1-(2-hydroxypropyl)-4-oxo-2,6-di(pyridin-2-yl)piperidine-3,5-dicarboxylate]	32 ± 0.63	18.3 ± 2.59	
COC(=O)C1C(=O)C(C(=O)OC)[C@H](c2ccccn2)N(CCOCCO)[C@@H]1c1ccccn1 (stereo partly drawn) [Compound 5, Dimethyl (2R,6S)-1-[2-(2-hydroxyethoxy)ethyl]-4-oxo-2,6-di(pyridin-2-yl)piperidine-3,5-dicarboxylate]	38.5 ± 6.17	24.1 ± 4.27	
COC(=O)C1C(=O)C(C(=O)OC)[C@H](c2ccccn2)N(CCCC(=O)O)[C@@H]1c1ccccn1 (stereo partly drawn) [Compound 6, 4-[(2R,6S)-3,5-bis(methoxycarbonyl)-4-oxo-2,6-di(pyridin-2-yl)piperldin-1-yl]butanoic acid]			EC50 [1, 8]: 46 ± 5.92 µM; EC50 [4, 9]: 19.3 ± 2.28 µM
COC(=O)C1C(=O)C(C(=O)OC)[C@H](c2ccccn2)N(CCCCCCCC(=O)O)[C@@H]1c1ccccn1 (stereo partly drawn) [Compound 7, 8-[(2R,6S)-3,5-bis(methoxycarbonyl)-4-oxo-2,6-di(pyridin-2-yl)piperidin-1-yl]octanoic acid]	33.8 ± 2.81	24 ± 4.48	
COC(=O)C1C(=O)C(C(=O)OC)[C@H](c2ccccn2)N(Cc2ccccn2)[C@@H]1c1ccccn1 (stereo partly drawn) [Compound 8, Dimethyl (2R,6S)-4-oxo-2,6-di(pyridine-2-yl)-1-(pyridine-2-yl-methyl)-piperidine-3,5-diearboxylate]			EC50 [1, 8]: 29.9 ± 2.32 µM; EC50 [4, 9]: 4.62 ± 1.39 µM
COC(=O)C1C(=O)C(C(=O)OC)[C@H](c2ccccn2)N(Cc2ccccc2)[C@@H]1c1ccccn1 (stereo partly drawn) [Compound 9, Dimethyl (2R,6S)-1-benzyl-4-oxo-2,6-di(pyridin-2-yl)piperidine-3,5-dicarboxylate]	34 ± 1.56	11.1 ± 1.91	
C=CCN1[C@@H](c2ccc([N+](=O)[O-])cc2)C(C(=O)OC)=C(O)C(C(=O)OC)[C@@H]1c1ccc([N+](=O)[O-])cc1 (stereo partly drawn) [Compound 10, Dimethyl (2R,6S)-1-allyl-4-hydroxy-2,6-bis(4-nitrophenyl)-1,2,3,6-tetrahydropyridine-3,5-dicarboxylate]	50.3 ± 11.7	2.41 ± 0.39	
COC(=O)C1C(=O)C(C(=O)OC)[C@H](c2cccc([N+](=O)[O-])c2)N(Cc2ccc(Cl)cc2)[C@@H]1c1cccc([N+](=O)[O-])c1 (stereo partly drawn) [Compound 14, Dimethyl (2R,6S)-1-(4-chlorobenzyl)-2,6-bis(3-nitrophenyl)-4-oxopiperidine-3,5-dicarboxylate]	46.6 ± 9.86	10.6 ± 2.83	
COC(=O)C1C(=O)C(C(=O)OC)[C@H](c2cccc([N+](=O)[O-])c2)N(Cc2ccc(OC)cc2)[C@@H]1c1cccc([N+](=O)[O-])c1 (stereo partly drawn) [Compound 15, Dimethyl (2R,6S)-1-(4-methoxybenzyl)-2,6-bis(3-nitrophenyl)-4-oxopiperidine-3,5-dicarboxylate]	> 100	3.93 ± 1.1	
COC(=O)C1C(=O)C(C(=O)OC)[C@H](c2cccc([N+](=O)[O-])c2)N(Cc2ccc(C)cc2)[C@@H]1c1cccc([N+](=O)[O-])c1 (stereo partly drawn) [Compound 16, Dimethyl (2R,6S)-1-(4-methylbenzyl)-2,6-bis(3-nitrophenyl)-4-oxopiperidine 3,5-dicarboxylate]	49.8 ± 16.8	2.66 ± 0.49	
COC(=O)C1C(=O)C(C(=O)OC)[C@H](c2cccc([N+](=O)[O-])c2)N(Cc2ccccc2)[C@@H]1c1cccc([N+](=O)[O-])c1 (stereo partly drawn) [Compound 17, Dimethyl (2R,6S)-1-benzyl-2,6-bis(3-nitrophenyl)-4-oxopiperidine-3,5-dicarboxylate]	> 100	2.49 ± 0.79	
C=CCN1[C@H](c2ccccc2)C(C(=O)OC)C(=O)C(C(=O)OC)[C@@H]1c1ccccc1 (stereo partly drawn) [Compound 18, Dimethyl (2R,6S)-1-allyl-4-oxo-2,6-diphenylpiperidine-3,5-dicarboxylate]	> 100	4.86 ± 0.63	
COC(=O)C1=C(O)C[C@@H](c2ccccn2)N(Cc2ccccc2)[C@H]1c1ccccn1 [Compound 19, Methyl (2'R,6'S)-1'-benzyl-4'-hydroxy-1',2',5',6'-tetrahydro-2,2';6',2''-terpyridine-3'-carboxylate]	33.2 ± 0.69	1.37 ± 0.02	
COC(=O)C1=C(O)C[C@@H](c2ccccn2)N(Cc2ccc(C)cc2)[C@H]1c1ccccn1 [Compound 20, Methyl (2'R,6'S)-4'-hydroxy-1'-(4-methylbenzyl)-1',2',5',6'-tetrahydro-2,2';6',2''-terpyridine-3'-carboxylate]	34.9 ± 0.45	0.47 ± 0.17	
COC(=O)C1=C(O)C[C@@H](c2ccccn2)N(Cc2ccc(OC)cc2)[C@H]1c1ccccn1 [Compound 22, Methyl (2'R,6'S)-4'-hydroxy-1'-(4-methoxybenzyl)-1',2',5',6'-tetrahydro-2,2';6',2''-terpyridine-3'-carboxylate]	29.9 ± 0.33	0.43 ± 0.17	
COC(=O)C1=C(O)C[C@@H](c2ccccn2)N(Cc2cccc(OC)c2)[C@H]1c1ccccn1 [Compound 23, Methyl (2'R,6'S)-4'-hydroxy-1'-(3-methoxybenzyl)-1',2',5',6'-tetrahydro-2,2';6',2''-terpyridine-3'-carboxylate]	> 100	> 100	
ON=C1CCN(CCCc2ccccc2)CC1 [Compound 48, 1-(3-Phenylpropyl)-4-piperidine oxime]			activity against trypanosomes (in words) [4]: neither the oximes 48 and 52 nor the oxime ether 49 are active against trypanosomes
CC(CN1CCC(=NOCc2c(Cl)cccc2Cl)CC1)c1ccccc1 (centres unmarked) [Compound 49, 1-(2-Phenylpropyl)-4-oxo-piperidine O-(2,6-dichloro-benzyl)-oxime]	> 100	> 100	activity against trypanosomes (in words) [4]: neither the oximes 48 and 52 nor the oxime ether 49 are active against trypanosomes
ON=CC1CCN(CCCc2ccccc2)CC1 [Compound 52, 1-1-(3-Phenyl-propyl)-piperidine-4-carbaldehyde oxime]			EC50 [1, 8]: > 100 µM; activity against trypanosomes (in words) [4]: neither the oximes 48 and 52 nor the oxime ether 49 are active against trypanosomes; EC50 [4, 9]: > 100 µM
NCCCC(N)(C(=O)O)C(F)F (centres unmarked) [Eflornitine, reference compound]			EC50 [4, 10]: 22.9 µM
N=C(N)c1ccc(OCCCCCOc2ccc(C(=N)N)cc2)cc1 [Pentamidine diisothionate, reference compound]			EC50 [4, 10]: 0.0027 µM
Cc1ccc(C(=O)Nc2ccc(S(=O)(=O)O)c3cc(S(=O)(=O)O)cc(S(=O)(=O)O)c23)cc1NC(=O)c1cccc(NC(=O)Nc2cccc(C(=O)Nc3cc(C(=O)Nc4ccc(S(=O)(=O)O)c5cc(S(=O)(=O)O)cc(S(=O)(=O)O)c45)ccc3C)c2)c1 [Suramine, reference compound]			EC50 [4, 5]: 0.3 µM
N[C@@H](Cn1ccc(=O)c(O)c1)C(=O)O [mimosine, L-mimosine]			toxicity in vivo ([2]; in vivo): toxic; IC50 ([3]; chloroquine resistant (CQR) strain, read-out: IC50 antiplasmodial effect): 39 µM; IC50 ([3]; chloroquine susceptible (CQS) strain, read-out: IC50 antiplasmodial effect): 32 µM

Reference: patent EP2036556A1, “Piperidone derivatives and medical uses thereof” (Heinrich-Pette-Institut, priority 2007, dated 2009)
